In PubChem BioAssay AID2060912 (Molecular Pharmacology Branch, DTP, NCI, 2025):

System: HUVEC/MSC spheroids viability
Test: Human HUVEC/MSC cell line growth inhibition [KRAS2];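 for viability, T/C: percent of DMSO vehicle control luminescence so 100% = untreated viability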
Conditions: for IC50: curve of first compound; for viability, T/C: stronger effect = lower value
In short: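 The concentration series started at or near clinical Cmax (10 microM if not known) and fell in half-log increments, alone or in combination. Cells were stromal-only spheroids of pooled-donor HUVEC and hMSC (passage </=5), with different drug plates and layout from the tumor spheroid screens.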

[1] = second compound 0.0316 µM, first compound 0.0316 µM
[2] = second compound 0.0316 µM, first compound 0.1 µM
[3] = second compound 0.1 µM, first compound 0.0316 µM
[4] = second compound 0.1 µM, first compound 0.1 µM
[5] = second compound 0.316 µM, first compound 0.0316 µM
[6] = second compound 0.316 µM, first compound 0.1 µM
[7] = second compound 1 µM, first compound 0.0316 µM
[8] = second compound 1 µM, first compound 0.1 µM
[9] = second compound 3.16 µM, first compound 0.0316 µM
[10] = second compound 3.16 µM, first compound 0.1 µM
[11] = second compound 10 µM, first compound 0.0316 µM
[12] = second compound 10 µM, first compound 0.1 µM
[13] = second compound 0.0316 µM, first compound 0.000316 µM
[14] = second compound 0.0316 µM, first compound 0.001 µM
[15] = second compound 0.0316 µM, first compound 0.00316 µM
[16] = second compound 0.0316 µM, first compound 0.01 µM
[17] = second compound 0.1 µM, first compound 0.000316 µM
[18] = second compound 0.1 µM, first compound 0.001 µM
[19] = second compound 0.1 µM, first compound 0.00316 µM
[20] = second compound 0.1 µM, first compound 0.01 µM
[21] = second compound 0.316 µM, first compound 0.000316 µM
[22] = second compound 0.316 µM, first compound 0.001 µM
[23] = second compound 0.316 µM, first compound 0.00316 µM
[24] = second compound 0.316 µM, first compound 0.01 µM
[25] = second compound 1 µM, first compound 0.000316 µM
[26] = second compound 1 µM, first compound 0.001 µM
[27] = second compound 1 µM, first compound 0.00316 µM
[28] = second compound 1 µM, first compound 0.01 µM
[29] = second compound 3.16 µM, first compound 0.000316 µM
[30] = second compound 3.16 µM, first compound 0.001 µM
[31] = second compound 3.16 µM, first compound 0.00316 µM
[32] = second compound 3.16 µM, first compound 0.01 µM
[33] = second compound 10 µM, first compound 0.000316 µM
[34] = second compound 10 µM, first compound 0.001 µM
[35] = second compound 10 µM, first compound 0.00316 µM
[36] = second compound 10 µM, first compound 0.01 µM

Q: `COC(=O)c1ccc2c(C(=Nc3ccc(N(C)C(=O)CN4CCN(C)CC4)cc3)c3ccccc3)c(O)[nH]c2c1` + CNCc1ccccc1-c1csc(C(C)Nc2nc(C)nc3cc(OC)c(OC)cc23)c1 was tested. Which IC50 (second compound 0.0316 µM) did it give?
A: 1550 nM

Q: And the IC50 (second compound 0.1 µM)?
A: 1470 nM

Q: What about the IC50 (second compound 0.316 µM) of the same molecule?
A: 1420 nM

Q: What about the IC50 (second compound 1 µM) of the same molecule?
A: 1190 nM

Q: What about the IC50 (second compound 3.16 µM) of the same molecule?
A: 988 nM

Q: What about the IC50 (second compound 10 µM) of the same molecule?
A: < 31.6 nM

Q: What about the viability, T/C [1] of the same molecule?
A: 77%

Q: What about the viability, T/C [2] of the same molecule?
A: 117%

Q: What about the viability, T/C (second compound 0.0316 µM, first compound 0.316 µM) of the same molecule?
A: 76.5%

Q: And the viability, T/C (second compound 0.0316 µM, first compound 1 µM)?
A: 53.4%

Q: And the viability, T/C (second compound 0.0316 µM, first compound 3.16 µM)?
A: 37.9%

Q: And the viability, T/C (second compound 0.0316 µM, first compound 10 µM)?
A: 0.32%

Q: What about the viability, T/C [3] of the same molecule?
A: 76.7%

Q: And the viability, T/C [4]?
A: 103%

Q: What about the viability, T/C (second compound 0.1 µM, first compound 0.316 µM) of the same molecule?
A: 87.3%

Q: What about the viability, T/C (second compound 0.1 µM, first compound 1 µM) of the same molecule?
A: 48.4%

Q: What about the viability, T/C (second compound 0.1 µM, first compound 3.16 µM) of the same molecule?
A: 36.9%

Q: And the viability, T/C (second compound 0.1 µM, first compound 10 µM)?
A: 0.41%

Q: What about the viability, T/C [5] of the same molecule?
A: 74.6%

Q: What about the viability, T/C [6] of the same molecule?
A: 125%

Q: And the viability, T/C (second compound 0.316 µM, first compound 0.316 µM)?
A: 90.9%

Q: And the viability, T/C (second compound 0.316 µM, first compound 1 µM)?
A: 53.1%

Q: And the viability, T/C (second compound 0.316 µM, first compound 3.16 µM)?
A: 31.9%

Q: And the viability, T/C (second compound 0.316 µM, first compound 10 µM)?
A: 0.39%

Q: What about the viability, T/C [7] of the same molecule?
A: 72.9%

Q: What about the viability, T/C [8] of the same molecule?
A: 85.9%

Q: What about the viability, T/C (second compound 1 µM, first compound 0.316 µM) of the same molecule?
A: 72.3%

Q: And the viability, T/C (second compound 1 µM, first compound 1 µM)?
A: 57.5%

Q: And the viability, T/C (second compound 1 µM, first compound 3.16 µM)?
A: 10.4%

Q: What about the viability, T/C (second compound 1 µM, first compound 10 µM) of the same molecule?
A: 0.24%

Q: What about the viability, T/C [9] of the same molecule?
A: 103%

Q: What about the viability, T/C [10] of the same molecule?
A: 95.8%

Q: And the viability, T/C (second compound 3.16 µM, first compound 0.316 µM)?
A: 84%

Q: What about the viability, T/C (second compound 3.16 µM, first compound 1 µM) of the same molecule?
A: 53.1%

Q: And the viability, T/C (second compound 3.16 µM, first compound 3.16 µM)?
A: 0.34%

Q: What about the viability, T/C (second compound 3.16 µM, first compound 10 µM) of the same molecule?
A: 0.27%

Q: And the viability, T/C [11]?
A: 0.37%

Q: What about the viability, T/C [12] of the same molecule?
A: 0.4%

Q: And the viability, T/C (second compound 10 µM, first compound 0.316 µM)?
A: 0.49%

Q: What about the viability, T/C (second compound 10 µM, first compound 1 µM) of the same molecule?
A: 0.51%

Q: What about the viability, T/C (second compound 10 µM, first compound 3.16 µM) of the same molecule?
A: 0.34%

Q: And the viability, T/C (second compound 10 µM, first compound 10 µM)?
A: 0.2%

Q: With `CN(C)C/C=C/C(=O)Nc1cc2c(Nc3ccc(F)c(Cl)c3)ncnc2cc1O[C@H]1CCOC1` + CC1OCC2(CCN(c3cnc(Sc4ccnc(N)c4Cl)c(N)n3)CC2)C1N as the molecule, how does the IC50 (second compound 0.0316 µM) read?
A: > 100 nM

Q: And the IC50 (second compound 0.1 µM)?
A: > 100 nM

Q: What about the IC50 (second compound 0.316 µM) of the same molecule?
A: > 100 nM

Q: And the IC50 (second compound 1 µM)?
A: > 100 nM

Q: And the IC50 (second compound 3.16 µM)?
A: > 100 nM

Q: What about the IC50 (second compound 10 µM) of the same molecule?
A: > 100 nM

Q: What about the viability, T/C [13] of the same molecule?
A: 110%

Q: And the viability, T/C [14]?
A: 123%

Q: And the viability, T/C [15]?
A: 121%

Q: And the viability, T/C [16]?
A: 103%

Q: And the viability, T/C [1]?
A: 99.1%

Q: What about the viability, T/C [2] of the same molecule?
A: 117%

Q: What about the viability, T/C [17] of the same molecule?
A: 108%

Q: And the viability, T/C [18]?
A: 148%

Q: And the viability, T/C [19]?
A: 105%

Q: What about the viability, T/C [20] of the same molecule?
A: 110%

Q: What about the viability, T/C [3] of the same molecule?
A: 98.7%

Q: And the viability, T/C [4]?
A: 126%

Q: And the viability, T/C [21]?
A: 108%

Q: And the viability, T/C [22]?
A: 114%

Q: And the viability, T/C [23]?
A: 99.4%

Q: And the viability, T/C [24]?
A: 99.3%

Q: And the viability, T/C [5]?
A: 101%

Q: What about the viability, T/C [6] of the same molecule?
A: 126%

Q: And the viability, T/C [25]?
A: 92.6%

Q: And the viability, T/C [26]?
A: 118%

Q: What about the viability, T/C [27] of the same molecule?
A: 106%

Q: And the viability, T/C [28]?
A: 86.8%

Q: And the viability, T/C [7]?
A: 102%

Q: And the viability, T/C [8]?
A: 108%

Q: And the viability, T/C [29]?
A: 79.7%

Q: And the viability, T/C [30]?
A: 96.2%

Q: And the viability, T/C [31]?
A: 77.9%

Q: And the viability, T/C [32]?
A: 94.1%

Q: What about the viability, T/C [9] of the same molecule?
A: 89.2%

Q: And the viability, T/C [10]?
A: 103%

Q: What about the viability, T/C [33] of the same molecule?
A: 71.7%

Q: What about the viability, T/C [34] of the same molecule?
A: 85.9%

Q: And the viability, T/C [35]?
A: 66.5%

Q: What about the viability, T/C [36] of the same molecule?
A: 66.3%

Q: And the viability, T/C [11]?
A: 80.9%

Q: And the viability, T/C [12]?
A: 89.3%

Q: With `CN(C)C/C=C/C(=O)Nc1cc2c(Nc3ccc(F)c(Cl)c3)ncnc2cc1O[C@H]1CCOC1` + C=CC(=O)N1CCN(c2nc(=O)n(-c3c(C)ccnc3C(C)C)c3nc(-c4c(O)cccc4F)c(F)cc23)C(C)C1 as the molecule, how does the IC50 (second compound 0.0316 µM) read?
A: > 100 nM

Q: What about the IC50 (second compound 0.1 µM) of the same molecule?
A: > 100 nM

Q: And the IC50 (second compound 0.316 µM)?
A: > 100 nM

Q: What about the IC50 (second compound 1 µM) of the same molecule?
A: > 100 nM

Q: What about the IC50 (second compound 3.16 µM) of the same molecule?
A: > 100 nM

Q: What about the IC50 (second compound 10 µM) of the same molecule?
A: > 100 nM

Q: And the viability, T/C [13]?
A: 98.4%

Q: And the viability, T/C [14]?
A: 115%

Q: And the viability, T/C [15]?
A: 97%

Q: And the viability, T/C [16]?
A: 84.3%

Q: And the viability, T/C [1]?
A: 91.4%

Q: What about the viability, T/C [2] of the same molecule?
A: 88.9%

Q: And the viability, T/C [17]?
A: 116%

Q: And the viability, T/C [18]?
A: 107%

Q: What about the viability, T/C [19] of the same molecule?
A: 85.7%

Q: What about the viability, T/C [20] of the same molecule?
A: 80.1%

Q: And the viability, T/C [3]?
A: 111%

Q: And the viability, T/C [4]?
A: 81%

Q: What about the viability, T/C [21] of the same molecule?
A: 108%

Q: And the viability, T/C [22]?
A: 109%

Q: And the viability, T/C [23]?
A: 87.3%

Q: And the viability, T/C [24]?
A: 92.8%

Q: And the viability, T/C [5]?
A: 96.8%

Q: And the viability, T/C [6]?
A: 100%

Q: What about the viability, T/C [25] of the same molecule?
A: 107%

Q: What about the viability, T/C [26] of the same molecule?
A: 119%

Q: And the viability, T/C [27]?
A: 105%

Q: And the viability, T/C [28]?
A: 124%

Q: What about the viability, T/C [7] of the same molecule?
A: 112%

Q: And the viability, T/C [8]?
A: 110%

Q: What about the viability, T/C [29] of the same molecule?
A: 107%

Q: And the viability, T/C [30]?
A: 129%

Q: What about the viability, T/C [31] of the same molecule?
A: 114%

Q: And the viability, T/C [32]?
A: 118%

Q: And the viability, T/C [9]?
A: 113%

Q: And the viability, T/C [10]?
A: 131%

Q: What about the viability, T/C [33] of the same molecule?
A: 128%

Q: And the viability, T/C [34]?
A: 122%

Q: And the viability, T/C [35]?
A: 145%

Q: And the viability, T/C [36]?
A: 97.3%

Q: And the viability, T/C [11]?
A: 124%

Q: What about the viability, T/C [12] of the same molecule?
A: 106%
